ChEMBL document CHEMBL1129578, “Tetrahydronaphthalenes: influence of heterocyclic substituents on inhibition of steroid enzymes P450 arom and P450 17” (J Med Chem, 1996)

What follows are compounds tested against T1, Cytochrome P450 11B2, mitochondrial (Homo sapiens, UniProt P19099). Conditions: Adrenal gland.
T1 sequence (P19099 whole entry): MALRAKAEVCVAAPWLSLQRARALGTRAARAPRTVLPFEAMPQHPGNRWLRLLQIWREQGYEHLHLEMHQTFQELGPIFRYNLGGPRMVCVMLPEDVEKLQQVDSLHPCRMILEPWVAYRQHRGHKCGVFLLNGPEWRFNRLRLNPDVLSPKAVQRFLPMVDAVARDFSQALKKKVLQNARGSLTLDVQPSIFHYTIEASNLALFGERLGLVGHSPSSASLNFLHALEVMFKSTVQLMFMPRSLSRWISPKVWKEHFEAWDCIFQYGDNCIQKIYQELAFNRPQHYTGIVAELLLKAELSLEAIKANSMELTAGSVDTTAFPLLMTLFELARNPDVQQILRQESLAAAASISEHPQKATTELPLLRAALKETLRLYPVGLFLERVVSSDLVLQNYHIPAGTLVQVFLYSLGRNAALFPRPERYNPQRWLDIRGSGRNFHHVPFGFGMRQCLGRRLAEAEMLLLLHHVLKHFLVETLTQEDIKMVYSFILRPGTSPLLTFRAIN
Description: Inhibitory activity against Steroidgenic Cytochrome P450 C18 using Bovine adrenal mitochondria
For c1ccc2c(c1)CCC1C(c3ccsc3)C21 (centres undefined), the IC50 was < 10 µM.

The compounds below were run against T2, Steroid 17-alpha-hydroxylase/17,20 lyase (Rattus norvegicus, UniProt P11715). Conditions: not given.
T2 sequence (P11715 whole entry): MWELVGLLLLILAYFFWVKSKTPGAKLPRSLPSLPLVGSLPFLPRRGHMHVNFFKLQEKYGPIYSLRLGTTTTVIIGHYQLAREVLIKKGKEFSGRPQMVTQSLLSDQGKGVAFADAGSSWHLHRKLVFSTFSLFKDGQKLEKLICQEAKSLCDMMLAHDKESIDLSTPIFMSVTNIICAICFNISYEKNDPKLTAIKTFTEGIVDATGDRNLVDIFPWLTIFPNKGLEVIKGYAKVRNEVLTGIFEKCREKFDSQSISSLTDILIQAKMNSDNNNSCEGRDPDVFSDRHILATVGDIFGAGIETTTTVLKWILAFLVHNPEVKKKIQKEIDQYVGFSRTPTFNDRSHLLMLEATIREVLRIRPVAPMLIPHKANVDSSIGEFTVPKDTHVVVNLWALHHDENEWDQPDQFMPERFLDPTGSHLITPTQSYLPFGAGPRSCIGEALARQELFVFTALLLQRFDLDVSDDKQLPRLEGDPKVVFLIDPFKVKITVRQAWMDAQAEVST
In the case of O=C1/C(=C/c2cccnn2)CCc2ccccc21, the IC50 is reported as < 10 µM. With c1ccc(C2C3CCc4ccccc4C32)nc1 (centres undefined) the IC50 was < 10 µM. With O=C1/C(=C/c2ccsc2)CCc2ccccc21 the IC50 was < 10 µM. With O=C1c2ccccc2CCC1C(O)c1ccncn1 (centres undefined) the IC50 was < 10 µM. O=C1/C(=C/c2cccnc2)CCc2ccccc21 showed an IC50 of 48 µM. In the case of c1ccc(C2C3CCc4ccccc4C32)cc1 (centres undefined), the IC50 is reported as < 10 µM. With O=C1c2ccccc2CCC1C(O)c1ccnnc1 (centres undefined) the IC50 was < 10 µM. With O=C1/C(=C/c2cncs2)CCc2ccccc21 the IC50 was 21 µM. In the case of O=C1c2ccccc2CCC1C(O)c1cnccn1 (centres undefined), the IC50 is reported as < 10 µM. With O=C1c2ccccc2CCC1C(O)c1cccnn1 (centres undefined) the IC50 was < 10 µM. In the case of O=C1/C(=C/c2ccccc2)CCc2ccccc21, the IC50 is reported as < 10 µM. c1ccc2c(c1)CCC1C(c3ccncc3)C21 (centres undefined) showed an IC50 of 36 µM. For O=C1/C(=C/c2cc[nH]n2)CCc2ccccc21, the IC50 was < 10 µM. In the case of O=C1/C(=C/c2ccccn2)CCc2ccccc21, the IC50 is reported as < 10 µM. For O=C1/C(=C/c2ccnnc2)CCc2ccccc21, the IC50 was < 10 µM. In the case of c1ccc2c(c1)CCC1C(c3ccsc3)C21 (centres undefined), the IC50 is reported as < 10 µM. Work on c1cncc(C2C3CCc4ccccc4C32)c1 (centres undefined) yielded an IC50 of 87 µM. With O=C1/C(=C/c2ccncc2)CCc2ccccc21 the IC50 was 37 µM.
